Source: the NIST ThermoML archive (doi:10.1016/j.jct.2013.04.017)

Assay: mn = molality of the nth substance listed, in mol/kg
Conditions: 101 kPa, Liquid, fixed-path interferometer

O=C(O)CC(O)(CC(=O)O)C(=O)O [citric acid] + O
speed of sound [m/s]
Conditions	288.15 K	293.15 K	298.15 K	303.15 K	308.15 K	313.15 K	318.15 K	323.15 K
m1 = 0.1003	1469.9	1485.9	1499.4	1510.9	1521	1529.8	1537.2	1542.6
m1 = 0.2504	1477.4	1492.5	1505.5	1516.2	1525.8	1533.9	1540.5	1545.9
m1 = 0.5006	1490.5	1504	1516.1	1525.7	1533.9	1541.2	1546.1	1550.7
m1 = 0.9988	1515	1526.4	1535.8	1543.3	1549.4	1554.9	1558.2	1561.1
m1 = 1.502	1538	1547.1	1554.4	1560.8	1565.6	1569.5	1572	1573.3
m1 = 2.023	1560.3	1567.1	1572.5	1576.7	1579.8	1582.2	1583.7	1582.6
m1 = 2.502	1578.8	1584.1	1587.9	1590.5	1592.4	1593.7	1593.9	1592.9
m1 = 3.006	1595.4	1598.9	1603	1603	1603.6	1603.8	1599.9	1598.2
m1 = 3.505	1613.1	1615.3	1616.7	1615.6	1615.2	1614.2	1612.6	1609.7
m1 = 3.998	1626.2	1628.7	1629.1	1626.7	1622.6	1621	1618.9	1615.4
m1 = 4.506	1640.7	1636.7	1641	1637.8	1635.5	1632.7	1629.6	1625.3
m1 = 4.997	1654.7	1653.3	1651.3	1648.6	1640.1	1635.7	1632.1	1626.1
